Here are results for 14 molecules from publication PMC7169845, “Synthesis and Bioactivity of Phthalimide Analogs as Potential Drugs to Treat Schistosomiasis, a Neglected Disease of Poverty” (Pharmaceuticals, 2020).

The IC50 is the concentration that inhibits the measured activity by half. For orientation: EC50 means the concentration needed to bring the measured effect to its halfway point. The term melting point denotes the temperature of the solid-liquid transition.

One data set concerns S. mansoni adults. Kind of data set: Phenotypic screen of S. mansoni adult worms (severity score). Type of data set: cell-based, Schistosoma mansoni. The note with it: for ADULT SEVERITY SCORES @ 10 µM, 1 h / ADULT SEVERITY SCORES @ 10 µM, 5 h / ADULT SEVERITY SCORES @ 10 µM, 24 h: score 0-4; for Adult Severity Score (10 µM) 1 h / Adult Severity Score (10 µM) 5 h / Adult Severity Score (10 µM) 24 h: score 0 to 4. Here is the method:
(§1) Functionalized Pht-based molecules were synthesized, and phenotypically screened at 10 µM as a function of time against S. Mansoni somules (up to 72 h) and adults (up to 24 h). The resulting phenotypes were classified using a previously described nomenclature that records the many non-exclusive changes (descriptors) that can occur in the parasite in response to chemical insult. Each descriptor is converted into a value from 0 (no effect) to 4 (maximal effect) to allow for comparisons of effects on the parasite between compounds [40, 41, 42, 43]. For consistency, we consider a score of 2 to be the minimum for a compound to be considered active.
(§2) Maintenance of the S. mansoni (Naval Medical Research Institute (NMRI) isolate), life cycle involved male Golden Syrian Hamsters and Biomphalaria glabrata snails (NMRI isolate), as the definitive and intermediate hosts, respectively. Use of hamsters was approved by the Institutional Animal Care and Use Committee of the University of California San Diego. The preparation of somules (post-infective larvae derived from infectious larvae called cercariae) and adult worms (≥42-days-old), and their co-incubation with test compounds using a customized Basch incubation medium were as described. Screens of two developmental stages were employed in order to identify compounds with a potential broader spectrum of efficacy than the current drug, PZQ, which is deficient in this regard. Screens with somules employed 96-well round-bottomed plates and 40–50 animals/well, whereas screens with adults employed 24-well flat-bottomed plates and approximately 5–7 males and 2–3 females/well. Screens employed a final compound concentration of 10 µM in DMSO (at 0.5% and 0.1% final concentrations for somules and adults, respectively). The complex and often dynamic phenotypic responses that the schistosome parasite is capable of were observed using an Axiovert A1 inverted microscope at the times indicated in the data table. Observations were codified using a defined nomenclature that involves simple “descriptors”, to convey changes in shape, motility and appearance compared to DMSO controls. Each descriptor was given a value of 1 and these were added up to yield a “severity score” with a maximum of 4. Evidence of degeneracy or death was awarded a value of 4 for adult parasites specifically, the inability to adhere to the bottom of the well using oral or ventral suckers was given a score of 1 and damage to the tegument (surface) was awarded a value of 4 on the understanding that such damage in vivo would compromise survival. Scores were averaged across the two experiments.

A further data set concerns HepG2-A16-CD81EGFP cells. In words: HepG2 cell cytotoxicity assay (CellTiter-Glo). The format is cell-based. The note with it: Homo sapiens, 72 h; for EC50: counter toxicity. On the procedure:
HepG2-A16-CD81EGFP cells (human hepatocarcinoma HepG2 cells stably transformed to express the tetraspanin CD81 receptor [51, 52]) were cultured at 37 °C in 5% CO2 in DMEM (without phenol red; Thermo Fisher Scientific, Waltham, MA, USA) supplemented with 10% FBS, 0.29 mg/mL glutamine, 100-unit penicillin and 100 μg/mL streptomycin. For cytotoxicity assays, compounds were prepared in 12-point 1:3 serial dilutions in DMSO starting at 10 mM. Then, 50 nL of compound (0.5% final DMSO concentration) were transferred with an Acoustic Transfer System (ATS) (Biosero) into white, solid bottom 1536-well assay plates (Greiner BioOne custom GNF mold; Monroe, NC, USA). Puromycin (12-point serial dilution starting at 10 μM) and 0.5% DMSO were used as positive and negative controls, respectively. After addition of compound, HepG2-A16-CD81EGFP cells in 10 µL of the above medium (5% FBS) were seeded into the assay plates at a density of 3,000 cells per well. Assay plates were incubated at 37 °C in 5% CO2for 72 h. To assess the HepG2 viability, the assay medium was removed by inverted centrifugation of the plate at 150 xg for 30 s. Then, 2 μL per well of CellTiter-Glo reagent (Promega diluted 1:2 with deionized water) was added using a MicroFlo liquid handler (BioTek). Immediately after addition of the CellTiter-Glo reagent, the luminescence was measured with an EnVision Multilabel reader (PerkinElmer). EC50 values were calculated using the normalized bioluminescence intensity and a non-linear, variable slope, four-parameter regression curve-fitting model in Prism 5 (GraphPad Software Inc., San Diego, CA, USA).
A general note: Cellular ATP, detected with luciferase, serves as a proxy for viable cell number.

In data set [1] the test system is S. mansoni somules (schistosomula, post-infective larvae). Kind of data set: Phenotypic screen of S. mansoni somules (severity score). Type of data set: cell-based, Schistosoma mansoni. Set-up: key to SOMULE DESCRIPTORS @ 10 µM, 24 h: Dark = dark; S = Slow; O = overactive; I = Immobile; R = shape altered from normal (either larger or smaller); Deg = degenerative changes; D = dead; pD = "partial death:" % of worms in a well that appear to be dead. The note with it: for Somule Severity Score (10 µM) 24 h: score 0 (no effect) to 4 (maximum), averaged across two experiments; for SOMULE SEVERITY SCORES @ 10 µM, 24 / SOMULE SEVERITY SCORES @ 10 µM, 48 / SOMULE SEVERITY SCORES @ 10 µM, 72: score 0-4; for SOMULE SEVERITY SCORES @ 10 µM, 48 / Somule Severity Score (10 µM) 48 h: 48 h; for Somule Severity Score (10 µM) 48 h / Somule Severity Score (10 µM) 72 h: score 0 to 4. Here is the method:
as §1, §2

Consider `CC(c1nc2ccccc2n1Cc1cn(-c2ccc(F)cc2)nn1)N1C(=O)c2ccccc2C1=O` (stereo not drawn) [6y, 2-(1-(1-((1-(4-Fluorophenyl)-1H-1,2,3-triazol-4-yl)methyl)-1H-benzo[d]imidazol-2-yl)ethyl)isoindoline-1,3-dione], for which, in the data set with S. mansoni adults, the “ADULT SEVERITY SCORES @ 10 µM, 1 h” value is given as 0; the “Adult Severity Score (10 µM) 1 h” value came out at 0; the “ADULT SEVERITY SCORES @ 10 µM, 5 h” value turned out to be 0; the “Adult Severity Score (10 µM) 5 h” value is given as 0. Also, in the data set on S. mansoni adults, the “ADULT SEVERITY SCORES @ 10 µM, 24 h” value was found to be 0 and the “Adult Severity Score (10 µM) 24 h” value came to 0. Besides, in the data set on HepG2-A16-CD81EGFP cells, the half-maximal inhibitory concentration (IC50) is > 100 µM and the EC50 is > 100 µM. Also, in data set [1] (24 h), the “Somule Severity Score (10 µM) 24 h” value turned out to be 0 and the “SOMULE SEVERITY SCORES @ 10 µM, 24” value is listed as 0. Besides, in data set [1], the “SOMULE SEVERITY SCORES @ 10 µM, 48” value was 0 and the “Somule Severity Score (10 µM) 48 h” value is on record as 0. In addition, in data set [1] (72 h), the “SOMULE SEVERITY SCORES @ 10 µM, 72” value came out at 0 and the “Somule Severity Score (10 µM) 72 h” value stood at 0.

In the case of `CCC(C)C(c1nc2ccccc2n1Cc1cn(-c2c(F)cccc2F)nn1)N1C(=O)c2ccccc2C1=O` (stereo not drawn) [6x, 2-(1-(1-((1-(2,6-Difluorophenyl)-1H-1,2,3-triazol-4-yl)methyl)-1H-benzo[d]imidazol-2-yl)-2-methylbutyl)isoindoline-1,3-dione], in the data set with S. mansoni adults, the “ADULT SEVERITY SCORES @ 10 µM, 1 h” value is on record as 0; the “Adult Severity Score (10 µM) 1 h” value stood at 0; the “ADULT SEVERITY SCORES @ 10 µM, 5 h” value is 0; the “Adult Severity Score (10 µM) 5 h” value amounted to 0. In addition, in the data set with S. mansoni adults, the “ADULT SEVERITY SCORES @ 10 µM, 24 h” value worked out at 0 and the “Adult Severity Score (10 µM) 24 h” value stood at 0. In addition, in the data set with HepG2-A16-CD81EGFP cells, the IC50 was > 100 µM and the EC50 was > 100 µM. Further, in data set [1] (24 h), the “Somule Severity Score (10 µM) 24 h” value turned out to be 0 and the “SOMULE SEVERITY SCORES @ 10 µM, 24” value is listed as 0. Further, in data set [1], the “SOMULE SEVERITY SCORES @ 10 µM, 48” value was determined as 0 and the “Somule Severity Score (10 µM) 48 h” value came to 0. Further, the “SOMULE DESCRIPTORS @ 10 µM, 72 h” value in data set [1] (72 h, phenotypic descriptors) was “Dark, R”. In addition, the “SOMULE SEVERITY SCORES @ 10 µM, 72” value in data set [1] (72 h) was determined as 2.

For `Cc1ccc(-n2cc(Cn3c(C(C)N4C(=O)c5ccccc5C4=O)nc4ccccc43)nn2)cc1` (stereo not drawn) [6z, 2-(1-(1-((1-(p-Tolyl)-1H-1,2,3-triazol-4-yl)methyl)-1H-benzo[d]imidazol-2-yl)ethyl)isoindoline-1,3-dione], in the data set on S. mansoni adults, the “ADULT SEVERITY SCORES @ 10 µM, 1 h” value was found to be 0; the “Adult Severity Score (10 µM) 1 h” value was 0; the “ADULT SEVERITY SCORES @ 10 µM, 5 h” value was 0; the “Adult Severity Score (10 µM) 5 h” value worked out at 0. Also, in the data set on S. mansoni adults, the “ADULT SEVERITY SCORES @ 10 µM, 24 h” value is 0 and the “Adult Severity Score (10 µM) 24 h” value is 0. Besides, in the data set with HepG2-A16-CD81EGFP cells, the IC50 was > 100 µM and the EC50 is > 100 µM. In addition, the “SOMULE DESCRIPTORS @ 10 µM, 24 h” value in data set [1] (24 h, phenotypic descriptors) is reported as “R”. In addition, in data set [1] (24 h), the “Somule Severity Score (10 µM) 24 h” value is on record as 1 and the “SOMULE SEVERITY SCORES @ 10 µM, 24” value stood at 1. In data set [1], the “SOMULE SEVERITY SCORES @ 10 µM, 48” value amounted to 0 and the “Somule Severity Score (10 µM) 48 h” value worked out at 0. In data set [1] (72 h), the “SOMULE SEVERITY SCORES @ 10 µM, 72” value is 0 and the “Somule Severity Score (10 µM) 72 h” value amounted to 0.

`Cc1ccc2c(c1)C(=O)N(C(C)c1nc3ccccc3n1Cc1cn(-c3ccncc3)nn1)C2=O` (stereo not drawn) [6n’, 5-Methyl-2-(1-(1-((1-(pyridin-4-yl)-1H-1,2,3-triazol-4-yl)methyl)-1H-benzo[d]imidazol-2-yl)ethyl)isoindoline-1,3-dione] yielded a melting point of 236 to 238 °C.

In turn, `CC(c1nc2ccccc2n1Cc1cn(Cc2ccccc2)nn1)N1C(=O)c2ccccc2C1=O` (stereo not drawn) [6e’, 2-(1-(1-((1-Benzyl-1H-1,2,3-triazol-4-yl)methyl)-1H-benzo[d]imidazol-2-yl)ethyl)isoindoline-1,3-dione] returned a melting point of 181 to 183 °C.

Turning to `CC(c1nc2ccccc2n1Cc1cn(-c2ccccc2)nn1)N1C(=O)c2ccccc2C1=O` (stereo not drawn) [6a’, 2-(1-(1-((1-Phenyl-1H-1,2,3-triazol-4-yl)methyl)-1H-benzo[d]imidazol-2-yl)ethyl)isoindoline-1,3-dione], the melting point lay within 187 to 189 °C.

As to `CC(C)CC(c1nc2ccccc2n1Cc1cn(-c2c(F)c(F)c(F)c(F)c2F)nn1)N1C(=O)c2ccccc2C1=O` (stereo not drawn) [6l, 2-(3-Methyl-1-(1-((1-(perfluorophenyl)-1H-1,2,3-triazol-4-yl)methyl)-1H-benzo[d]imidazol-2-yl)butyl)isoindoline-1,3-dione], the melting point lay in the range of 100 to 102 °C.

The molecule `CC(c1nc2ccccc2n1Cc1cn(-c2ccccc2F)nn1)N1C(=O)c2ccccc2C1=O` (stereo not drawn) [6c’, 2-(1-(1-((1-(2-Fluorophenyl)-1H-1,2,3-triazol-4-yl)methyl)-1H-benzo[d]imidazol-2-yl)ethyl)isoindoline-1,3-dione] yielded a melting point of 186 to 188 °C.

For `Cc1ccc2c(c1)C(=O)N(C(C)c1nc3ccccc3n1Cc1c[nH]nn1)C2=O` (stereo not drawn) [6k’, 2-(1-(1-((1H-1,2,3-Triazol-4-yl)methyl)-1H-benzo[d]imidazol-2-yl)ethyl)-5-methylisoindoline-1,3-dione], the melting point was in the range of 100 to 102 °C.

As to `CCC(C)C(c1nc2ccccc2n1Cc1cn(-c2ccccc2F)nn1)N1C(=O)c2ccc(C)cc2C1=O` (stereo not drawn) [6q, 2-(1-(1-((1-(2-Fluorophenyl)-1H-1,2,3-triazol-4-yl)methyl)-1H-benzo[d]imidazol-2-yl)-2-methylbutyl)-5-methylisoindoline-1,3-dione], the melting point was 114 to 116 °C.

`CCC(C)C(c1nc2ccccc2n1Cc1cn(-c2ccncc2)nn1)N1C(=O)c2ccccc2C1=O` (stereo not drawn) [6u, 2-(2-Methyl-1-(1-((1-(pyridin-4-yl)-1H-1,2,3-triazol-4-yl)methyl)-1H-benzo[d]imidazol-2-yl)butyl)isoindoline-1,3-dione] gave a melting point of 101 to 103 °C.

`CC(C)CC(c1nc2ccccc2n1Cc1cn(-c2c(F)cccc2F)nn1)N1C(=O)c2ccccc2C1=O` (stereo not drawn) [6p, 2-(1-(1-((1-(2,6-Difluorophenyl)-1H-1,2,3-triazol-4-yl)methyl)-1H-benzo[d]imidazol-2-yl)-3-methylbutyl)isoindoline-1,3-dione] came in with a melting point of 198 to 200 °C.

`Cc1ccc2c(c1)C(=O)N(C(C)c1nc3ccccc3n1Cc1cn(-c3ccccc3)nn1)C2=O` (stereo not drawn) [6l’, 5-Methyl-2-(1-(1-((1-phenyl-1H-1,2,3-triazol-4-yl)methyl)-1H-benzo[d]imidazol-2-yl)ethyl)isoindoline-1,3-dione] registered a melting point of 185 to 187 °C.

For the molecule `CC(C)C(c1nc2ccccc2n1Cc1cn(-c2ccccc2F)nn1)N1C(=O)c2ccccc2C1=O` (stereo not drawn) [6s’, 2-(1-(1-((1-(2-Fluorophenyl)-1H-1,2,3-triazol-4-yl)methyl)-1H-benzo[d]imidazol-2-yl)-2-methylpropyl)isoindoline-1,3-dione], the melting point lay within 115 to 117 °C.
